Values quoted from earlier work as cited in publication PMC11195919 (Journal of pharmacy & pharmaceutical sciences : a …, 2021).

Columns and labels:
[1] = system: primary rat hepatocyte
[2] = system: OATP1B3; settings: read-out: Km of CCK-8 transport by OATP1B3

linear range of initial uptake of CCK-8 ([1]; non-transduced rat hepatocytes): at least 1 min
Km ([1]; read-out: Km of CCK-8 uptake in primary rat hepatocyte): 6.7 µM
Km [2]: 3.82 µM
Substance: cholecystokinin octapeptide [CCK-8]
